Assay results from patent US20210147507A1, “METHODS TO AUGMENT OR ALTER SIGNAL TRANSDUCTION” (Bellicum Pharmaceuticals, Inc., priority 2017, published 2021).
Substitutions are numbered along the chain they refer to. Names and notes keep the numbering of the source. Read-outs that look alike come from different tables or passages of the source.

What was measured:
[1] = target: wt FRB (K2095 T2098 W2101) (Homo sapiens, UniProt P42345+P62942); conditions: cited from earlier work
FRB-KTF = FRB-KTF (Homo sapiens, UniProt P42345+P62942, W2101F); conditions: cited from earlier work
FRB-KTF, sequence (P42345 2012-2144 W2101F): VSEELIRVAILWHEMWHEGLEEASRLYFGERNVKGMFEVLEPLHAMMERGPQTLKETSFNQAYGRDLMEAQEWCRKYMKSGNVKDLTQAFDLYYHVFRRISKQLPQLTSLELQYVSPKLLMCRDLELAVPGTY
FRB-KTF, sequence (P62942 2-108): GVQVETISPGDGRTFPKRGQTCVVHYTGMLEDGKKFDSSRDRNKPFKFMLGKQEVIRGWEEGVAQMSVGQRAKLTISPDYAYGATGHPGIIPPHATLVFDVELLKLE

FRB-PLF = FRB-PLF (Homo sapiens, UniProt P42345+P62942, K2095P/T2098L/W2101F); conditions: cited from earlier work
FRB-PLF, sequence (P42345 2012-2144 K2095P/T2098L/W2101F limits assumed): as the sequence (P42345 2012-2144 W2101F) above, with K84P, T87L counted along it
FRB-PLF, sequence (P62942 2-108 limits assumed): as the sequence (P62942 2-108) above

[2] = system: CD3+ΔCD19+ iCasp9 T cells / GvHD; test: Phase I clinical trial of allodepleted T cells transduced with iCasp9 after haploidentical stem cell transplantation; assay type: in vivo, human
From the text: This example presents results of a phase 1 clinical trial using an alternative suicide gene strategy. Briefly, donor peripheral blood mononuclear cells were co-cultured with recipient irradiated EBV-transformed lymphoblastoid cells (40:1) for 72 hrs., allodepleted with a CD25 immunotoxin and then transduced with a retroviral supernatant carrying the iCasp9 suicide gene and a selection marker (ΔCD19); ΔCD19 allowed enrichment to >90% purity via immunomagnetic selection.
Patients developing grade 1 GvHD were treated with 0.4 mg/kg AP1903 as a 2-hour infusion.
Three patients received iCasp9^+ T cells after haplo-CD34^+ stem cell transplantation (SCT), at dose levels between about 1×10^6 to about 3×10^6 cells/kg.

[3] = target: wild-type phenylalanine 36 FKBP12 (Homo sapiens, UniProt P62942); conditions: cited from earlier work
wild-type phenylalanine 36 FKBP12, sequence (P62942 whole entry): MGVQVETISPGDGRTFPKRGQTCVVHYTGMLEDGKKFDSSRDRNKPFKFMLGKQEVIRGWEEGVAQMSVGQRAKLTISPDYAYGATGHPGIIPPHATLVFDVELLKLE

[4] = cited from earlier work; for safety and tolerability (in words): healthy volunteers
[5] = system: HPAC pancreatic cancer cells; test: T cell anti-tumor assay: PSCA CAR-T cells with iM-X cocultured with HPAC-RFP cells (IncuCyte); assay type: cell-based, human; conditions: 1 nM
Procedure: The HPAC PSCA^+ tumor cells were stably labeled with nuclear-localized RFP protein using the NucLight™ Red Lentivirus Reagent (Essen Bioscience, 4625). To set up the coculture, 4000 HPAC-RFP cells were seeded per well of 96-well plates in 100 μl of CTL medium without IL-2 for at least 4 hours to allow tumor cells to adhere. After transduction with the appropriate retrovirus and having been allowed to rest for at least 7 days in culture, T were seeded according to various E:T ratios in the HPAC-RFP-containing 96-well plates. […] Each plate was set up in duplicates, one plate to monitor with the IncuCyte and one plate for supernatant collection for ELISA assay on day 2. The plates were centrifuged for 5 min at 400×g and placed inside the IncuCyte (Dual Color Model 4459) to monitor red fluorescence (and green fluorescence if T cells were labeled with GFP-Ffluc) every 2-3 hours for a total of 7 days at 10× objective. Image analysis was performed using the “HPAC-RFP-_TcellsGFP_10×_MLD” processing definition. On day 7, HPAC-RFP cells were analyzed using the “Red Object Count (1/well)” metric. Also on day 7, 0 or 10 nM of suicide drug were added to each well of the coculture and placed back in the IncuCyte to monitor T cell elimination. On day 8, Tcell-GFP cells were analyzed using the “Total Green Object Integrated Intensity” metric. […]

cells = test: Rimiducid amount needed in vitro for effective signaling of cells; assay type: cell-based
Procedure: This equates to 14-140 μg/L or ˜0.014-0.14 mg/kg ([…]). The dosage may vary according to the application, and may, in certain examples, be more in the range of 0.1-10 nM, or in the range of 50-150 nM, 10-200 nM, 75-125 nM, 100-500 nM, 100-600 nM, 100-700 nM, 100-800 nM, or 100-900 nM.

[6] = system: chimeric Caspase-9 polypeptide; test: Caspase-9 mutant classes and basal activity (Table 5); assay type: cell-based; conditions: Caspase-9 mutant class; for Basal Activity: basal (ligand-independent) signaling compared with unmodified chimeric Caspase-9
chimeric Caspase-9 polypeptide, sequence (P62942 2-108 F37V limits assumed): as the sequence (P62942 2-108) above, with F36V counted along it

wt FRB (K2095 T2098 W2101), sequence (P42345 2012-2144 limits assumed): as the sequence (P42345 2012-2144 W2101F) above, with F90W counted along it
wt FRB (K2095 T2098 W2101), sequence (P62942 2-108 limits assumed): as the sequence (P62942 2-108) above

## S-Butanesulfonamidorap [AP23050]
[1]
  EC50: ~2.7 nM
FRB-KTF
  EC50: > 200 nM

## CO[C@@H]1C[C@H](C[C@@H](C)[C@@H]2CC(=O)[C@H](C)/C=C(\C)[C@@H](O)[C@@H](OC)C(=O)[C@H](C)C[C@H](C)/C=C/C=C/C=C(\C)[C@H](OC(C)C)C[C@@H]3CC[C@@H](C)[C@@](O)(O3)C(=O)C(=O)N3CCCC[C@H]3C(=O)O2)CC[C@H]1O [R-Isopropoxyrapamycin]
FRB-PLF
  EC50: ~8.5 nM
[1]
  EC50: ~300 nM

## CC[C@H](C(=O)N1CCCC[C@H]1C(=O)O[C@H](CCc1ccc(OC)c(OC)c1)c1cccc(OCC(=O)NCCNC(=O)COc2cccc([C@@H](CCc3ccc(OC)c(OC)c3)OC(=O)[C@@H]3CCCCN3C(=O)[C@@H](CC)c3cc(OC)c(OC)c(OC)c3)c2)c1)c1cc(OC)c(OC)c(OC)c1 (relative stereo) [rimiducid, 2-Piperidinecarboxylic acid, 1-[(2S)-1-oxo-2-(3,4,5-trimethoxyphenyl)butyl]-, 1,2-ethanediylbis [imino(2-oxo-2,1-ethanediyl)oxy-3,1-phenylene[(1R)-3-(3,4-Dimethoxyphenyl)propylidene]] ester, [2S-[1(R*),2R*[S*[S*[1(R*),2R1]]]]]-(9C1)]
[2]; after rimiducid administration
  time to resolution of skin and liver GvHD: ≤ 24 h
[2]; within 30 minutes of infusion, two patients with grade I/II GvHD
  ablation of CD3+ΔCD19+ cells: > 90%
[2]; within 24 hours
  further reduction of CD3+ΔCD19+ cells: further log reduction
[3]
  binding to FKBP12 (in words): not able to bind
[4]; 1.0 mg/kg
  duration of the adverse event: 32 min
  onset of the adverse event after start of infusion: 3 min
[4]; 0.01-1.0 mg/kg dose range, infused IV over 2 hours
  mean Cmax: 10 to 1275 ng/mL
[4]; 0.01-1.0 mg/kg
  plasma levels versus dose: directly proportional to dose
  safety and tolerability (in words): No significant adverse effects
[4]; 1 volunteer at 1.0 mg/kg
  adverse event considered possibly related: vasodilatation
[4]; 0.5 hours post-dose
  plasma level, % of maximal concentration: 18%
[4]; 0.5 hours post-dose, listed as Rimiducid
  plasma level, % of maximal concentration: approximately 18%
[4]; 2 hours post-dose
  plasma level, % of maximal concentration: ~7%
[4]; 10 hours post-dose
  plasma level, % of maximal concentration: ~1%
[4]; Phase I study
  well-tolerated dose: up to 1 mg/kg
[4]; following each treatment
  incidence of adverse events: very low
[4]; 0.01-1.0 mg/kg, listed as AP1903
  safety and tolerability (in words): No serious adverse events
[4]; human, in vivo
  pharmacokinetic profile (in words): favorable pharmacokinetic profile
[5]; Not Transduced (NT) primary T cells
  effect on cell growth of tumor or T cell: did not affect the cell growth
[5]; T cells expressing the inducible chimeric signaling polypeptide
  effect on T cell efficacy: augmented T cell efficacy
cells
  amount needed for effective signaling, converted: 0.014 to 0.14 mg/kg
  amount needed in vitro for effective signaling of cells: 10 to 100 nM
cells; MW 1412 Da
  amount needed for effective signaling, converted: 14 to 140 µg/L

B1: G402A (protein)
chain: GFGDVGALESLRGNADLAYILSMEPCGHCLIINNVNFCRESGLRTRTGSNIDCEKLRRRFSSLHFMVEVKGDLTAKKMVLALLELARQDHGALDCCVVVILSHGCQASHLQFPGAVYGTDGCPVSVEKIVNIFNGTSCPSLGGKPKLFFIQACGGEQKDHGFEVASTSPEDESPGSNPEPDATPFQEGLRTFDQLDAISSLPTPSDIFVSYSTFPGFVSWRDPKSGSWYVETLDDIFEQWAHSEDLQSLLLRVANAVSVKGIYKQMPACFNFLRKKLFFKTSASRA
[6]
  Catalytic activity (class 'Catalytically dead'): dead

B2: S196D (protein)
chain: B1 chain with S62D, A268G
[6]
  Basal Activity: Decreased

B3: C403P (protein)
chain: B1 chain with A268G, C269P
[6]
  Catalytic activity (class 'Catalytically dead'): dead

B4: S144A (protein)
chain: B1 chain with S10A, A268G
[6]
  Basal Activity: Decreased

B5: G402Y (protein)
chain: B1 chain with A268Y
[6]
  Catalytic activity (class 'Catalytically dead'): dead

B6: T317S (protein)
chain: B1 chain with T183S, A268G
[6]
  Basal Activity: Decreased

B7: G402I (protein)
chain: B1 chain with A268I
[6]
  Catalytic activity (class 'Catalytically dead'): dead

B8: G402Q (protein)
chain: B1 chain with A268Q
[6]
  Catalytic activity (class 'Catalytically dead'): dead

B9: S144D (protein)
chain: B1 chain with S10D, A268G
[6]
  Basal Activity: Decreased
